The source of these data is patent US20040156869A1, “2-substituted quinazolin-4-ylamine analogues” (Neurogen Corporation, priority 2002, published 2004).

In general, pKi refers to the Ki on a negative log10 scale, so that one unit is a factor of ten. Read a high pKi as a small Ki.

The structures appear in SMILES notation. pKi: −log10 of the molar value.

This test deals with human capsaicin receptor (VR1) (Homo sapiens, UniProt Q8NER1). Briefly: Capsaicin receptor binding assay ([3H]RTX competition, VR1-transfected HEK293 membranes).
Sequence of human capsaicin receptor (VR1) (Q8NER1 whole entry): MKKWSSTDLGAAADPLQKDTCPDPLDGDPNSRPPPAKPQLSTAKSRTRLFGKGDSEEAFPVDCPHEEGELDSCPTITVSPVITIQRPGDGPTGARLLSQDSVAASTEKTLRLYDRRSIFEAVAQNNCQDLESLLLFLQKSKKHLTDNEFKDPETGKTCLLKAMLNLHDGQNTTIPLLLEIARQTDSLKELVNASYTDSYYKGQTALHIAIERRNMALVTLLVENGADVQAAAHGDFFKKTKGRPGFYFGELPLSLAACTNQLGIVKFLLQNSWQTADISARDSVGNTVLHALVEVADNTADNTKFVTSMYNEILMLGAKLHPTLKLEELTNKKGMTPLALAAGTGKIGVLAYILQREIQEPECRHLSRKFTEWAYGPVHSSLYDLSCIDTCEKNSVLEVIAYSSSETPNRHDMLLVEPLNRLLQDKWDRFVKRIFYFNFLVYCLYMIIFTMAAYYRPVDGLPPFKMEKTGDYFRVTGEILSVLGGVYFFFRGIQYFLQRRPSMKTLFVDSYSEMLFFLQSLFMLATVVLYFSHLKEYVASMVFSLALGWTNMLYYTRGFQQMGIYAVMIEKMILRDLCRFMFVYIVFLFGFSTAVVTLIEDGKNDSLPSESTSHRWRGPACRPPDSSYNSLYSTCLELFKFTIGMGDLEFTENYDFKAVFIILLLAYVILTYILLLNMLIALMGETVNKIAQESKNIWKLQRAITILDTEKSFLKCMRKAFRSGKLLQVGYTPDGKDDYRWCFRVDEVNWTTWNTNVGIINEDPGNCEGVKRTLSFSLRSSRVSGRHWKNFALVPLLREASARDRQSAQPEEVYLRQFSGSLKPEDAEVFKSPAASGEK
`CCC(c1ccccc1)N(C)CCc1nc(Nc2ccc(C(F)(F)F)cc2)c2ccc(-c3ncccc3C(F)(F)F)cc2n1` (stereo not drawn) [Compound 390, [2-{2-[Methyl-(1-phenyl-propyl)-amino]-ethyl}-7-(3-trifluoromethyl-pyridin-2-yl)-quinazolin-4-yl]-(4-trifluoromethyl-phenyl)-amine]: the pKi was over 6.00.
In the case of `CC1c2ccccc2CCN1CCc1nc(Nc2ccc(C(F)(F)F)cc2)c2ccc(-c3ncccc3C(F)(F)F)cc2n1` (stereo not drawn) [Compound 391, [2-[2-(1-Methyl-3,4-dihydro-1H-isoquinolin-2-yl)-ethyl]-7-(3-trifluoromethyl-pyridin-2-yl)-quinazolin-4-yl]-(4-trifluoromethyl-phenyl)-amine] it was over 6.00; in that of `CN(CCc1nc(Nc2ccc(C(F)(F)F)cc2)c2ccc(-c3ncccc3C(F)(F)F)cc2n1)Cc1ccccc1` [Compound 392, [2-[2-(Benzyl-methyl-amino)-ethyl]-7-(3-trifluoromethyl-pyridin-2-yl)-quinazolin-4-yl]-(4-trifluoromethyl-phenyl)-amine], over 6.00.
The figure for `FC(F)(F)c1ccc(Nc2nc(CCN3CCc4ccccc4C3)nc3cc(-c4ncccc4C(F)(F)F)ccc23)cc1` [Compound 393, [2-[2-(3,4-Dihydro-1H-isoquinolin-2-yl)-ethyl]-7-(3-trifluoromethyl-pyridin-2-yl)-quinazolin-4-yl]-(4-trifluoromethyl-phenyl)-amine] is over 6.00; for `CN(CCc1nc(Nc2ccc(C(F)(F)F)cc2)c2ccc(-c3ncccc3C(F)(F)F)cc2n1)Cc1cccc(F)c1` [Compound 394, [2-{2-[(3-Fluoro-benzyl)-methyl-amino]-ethyl}-7-(3-trifluoromethyl-pyridin-2-yl)-quinazolin-4-yl]-(4-trifluoromethyl-phenyl)-amine] it is over 6.00.
In turn, `Cc1ccccc1CN(C)CCc1nc(Nc2ccc(C(F)(F)F)cc2)c2ccc(-c3ncccc3C(F)(F)F)cc2n1` [Compound 395, [2-{2-[Methyl-(2-methyl-benzyl)-amino]-ethyl}-7-(3-trifluoromethyl-pyridin-2-yl)-quinazolin-4-yl]-(4-trifluoromethyl-phenyl)-amine] gave a pKi of over 6.00.
In the case of `CN(CCc1nc(Nc2ccc(C(F)(F)F)cc2)c2ccc(-c3ncccc3C(F)(F)F)cc2n1)Cc1ccccc1F` [Compound 396, [2-{2-[(2-Fluoro-benzyl)-methyl-amino]-ethyl}-7-(3-trifluoromethyl-pyridin-2-yl)-quinazolin-4-yl]-(4-trifluoromethyl-phenyl)-amine] it was over 6.00.
The figure for `FC(F)(F)c1ccc(Nc2nc(CCN(Cc3ccccc3)C3CC3)nc3cc(-c4ncccc4C(F)(F)F)ccc23)cc1` [Compound 397, [2-[2-(Benzyl-cyclopropyl-amino)-ethyl]-7-(3-trifluoromethyl-pyridin-2-yl)-quinazolin-4-yl]-(4-trifluoromethyl-phenyl)-amine] is over 6.00; for `CN(CCc1ccccc1)CCc1nc(Nc2ccc(C(F)(F)F)cc2)c2ccc(-c3ncccc3C(F)(F)F)cc2n1` [Compound 398, [2-[2-(Methyl-phenethyl-amino)-ethyl]-7-(3-trifluoromethyl-pyridin-2-yl)-quinazolin-4-yl]-(4-trifluoromethyl-phenyl)-amine] it is over 6.00.
In the case of `FC(F)(F)c1ccc(Nc2nc(CCN3CCCCC3)nc3cc(-c4ncccc4C(F)(F)F)ccc23)cc1` [Compound 399, [2-Piperidin-1-ylethyl-7-(3-trifluoromethyl-pyridin-2-yl)-quinazolin-4-yl]-(4-trifluoromethyl-phenyl)-amine] it was over 6.00; in that of `FC(F)(F)c1ccc(Nc2nc(CCN3CCOCC3)nc3cc(-c4ncccc4C(F)(F)F)ccc23)cc1` [Compound 400, [2-Morpholin-4-ylethyl-7-(3-trifluoromethyl-pyridin-2-yl)-quinazolin-4-yl]-(4-trifluoromethyl-phenyl)-amine], over 6.00.
As for `CC1CCN(CCc2nc(Nc3ccc(C(F)(F)F)cc3)c3ccc(-c4ncccc4C(F)(F)F)cc3n2)CC1` [Compound 401, [2-(4-Methyl-piperidin-1-ylethyl)-7-(3-trifluoromethyl-pyridin-2-yl)-quinazolin-4-yl]-(4-trifluoromethyl-phenyl)-amine], the pKi was over 6.00.
The figure for `FC(F)(F)c1ccc(Nc2nc(CCN3CCCCCC3)nc3cc(-c4ncccc4C(F)(F)F)ccc23)cc1` [Compound 402] is over 6.00; for `FC(F)(F)c1ccc(Nc2nc(CCN3CCSCC3)nc3cc(-c4ncccc4C(F)(F)F)ccc23)cc1` [Compound 403, [2-Thiomorpholin-4-ylethyl-7-(3-trifluoromethyl-pyridin-2-yl)-quinazolin-4-yl]-(4-trifluoromethyl-phenyl)-amine] it is over 6.00.
As to `CC1(C)CCCN(CCc2nc(Nc3ccc(C(F)(F)F)cc3)c3ccc(-c4ncccc4C(F)(F)F)cc3n2)C1` [Compound 404, [2-(3,3-Dimethyl-piperidin-1-ylethyl)-7-(3-trifluoromethyl-pyridin-2-yl)-quinazolin-4-yl]-(4-trifluoromethyl-phenyl)-amine], the negative-log Ki (pKi) was over 6.00.
In the case of `FC(F)(F)c1ccc(Nc2nc(CCN3CCCCCCC3)nc3cc(-c4ncccc4C(F)(F)F)ccc23)cc1` [Compound 405, [2-Azocan-1-ylethyl-7-(3-trifluoromethyl-pyridin-2-yl)-quinazolin-4-yl]-(4-trifluoromethyl-phenyl)-amine], the negative-log Ki (pKi) was over 6.00.
In the case of `CC1CCN(CCc2nc(Nc3ccc(C(F)(F)F)cc3)c3ccc(-c4ncccc4C(F)(F)F)cc3n2)CC(C)(C)C1` (stereo not drawn) [Compound 406, (4-Trifluoromethyl-phenyl)-{7-(3-trifluoromethyl-pyridin-2-yl)-2-[2-(3,3,5-trimethyl-azepan-1-yl)-ethyl]-quinazolin-4-yl}-amine] it was over 6.00; in that of `FC(F)(F)c1ccc(Nc2nc(CCN3CCC4(CC3)OCCO4)nc3cc(-c4ncccc4C(F)(F)F)ccc23)cc1` [Compound 407, [2-[2-(1,4-Dioxa-8-aza-spiro[4.5]dec-8-yl)-ethyl]-7-(3-trifluoromethyl-pyridin-2-yl)-quinazolin-4-yl]-(4-trifluoromethyl-phenyl)-amine], over 6.00; in that of `FC(F)(F)c1ccc(Nc2nc(CCN3CCCC4CCCCC43)nc3cc(-c4ncccc4C(F)(F)F)ccc23)cc1` (stereo not drawn) [Compound 408, [2-(Octahydro-quinolin-1-ylethyl)-7-(3-trifluoromethyl-pyridin-2-yl)-quinazolin-4-yl]-(4-trifluoromethyl-phenyl)-amine], over 6.00.
With `CN(C)CCc1nc(Nc2ccc(C(F)(F)F)cc2)c2ccc(-c3ncccc3C(F)(F)F)cc2n1` [Compound 409, [2-Dimethylaminoethyl-7-(3-trifluoromethyl-pyridin-2-yl)-quinazolin-4-yl]-(4-trifluoromethyl-phenyl)-amine], the negative-log Ki (pKi) is over 6.00.
In turn, `C=CCN(C)CCc1nc(Nc2ccc(C(F)(F)F)cc2)c2ccc(-c3ncccc3C(F)(F)F)cc2n1` [Compound 410, [2-[(Allyl-methyl-amino)-ethyl]-7-(3-trifluoromethyl-pyridin-2-yl)-quinazolin-4-yl]-(4-trifluoromethyl-phenyl)-amine] gave a pKi of over 6.00.
`CCN(CC)CCc1nc(Nc2ccc(C(F)(F)F)cc2)c2ccc(-c3ncccc3C(F)(F)F)cc2n1` [Compound 411, [2-Diethylaminoethyl-7-(3-trifluoromethyl-pyridin-2-yl)-quinazolin-4-yl]-(4-trifluoromethyl-phenyl)-amine] had a pKi of over 6.00.
The figure for `CCCN(C)CCc1nc(Nc2ccc(C(F)(F)F)cc2)c2ccc(-c3ncccc3C(F)(F)F)cc2n1` [Compound 412, [2-[(Propyl-methyl-amino)-ethyl]-7-(3-trifluoromethyl-pyridin-2-yl)-quinazolin-4-yl]-(4-trifluoromethyl-phenyl)-amine] is over 6.00.
In the case of `CCCCN(C)CCc1nc(Nc2ccc(C(F)(F)F)cc2)c2ccc(-c3ncccc3C(F)(F)F)cc2n1` [Compound 413, [2-[(Butyl-methyl-amino)-ethyl]-7-(3-trifluoromethyl-pyridin-2-yl)-quinazolin-4-yl]-(4-trifluoromethyl-phenyl)-amine] it was over 6.00.
In turn, `CCN(CCc1nc(Nc2ccc(C(F)(F)F)cc2)c2ccc(-c3ncccc3C(F)(F)F)cc2n1)C(C)C` [Compound 414, [2-[(Isopropyl-ethyl-amino)-ethyl]-7-(3-trifluoromethyl-pyridin-2-yl)-quinazolin-4-yl]-(4-trifluoromethyl-phenyl)-amine] had a negative-log Ki (pKi) of over 6.00.
The figure for `C=CCN(CC=C)CCc1nc(Nc2ccc(C(F)(F)F)cc2)c2ccc(-c3ncccc3C(F)(F)F)cc2n1` [Compound 415, [2-Diallylaminoethyl-7-(3-trifluoromethyl-pyridin-2-yl)-quinazolin-4-yl]-(4-trifluoromethyl-phenyl)-amine] is over 6.00; for `CCCN(CCC)CCc1nc(Nc2ccc(C(F)(F)F)cc2)c2ccc(-c3ncccc3C(F)(F)F)cc2n1` [Compound 416, [2-Dipropylaminoethyl-7-(3-trifluoromethyl-pyridin-2-yl)-quinazolin-4-yl]-(4-trifluoromethyl-phenyl)-amine] it is over 6.00; for `CCCCN(CC)CCc1nc(Nc2ccc(C(F)(F)F)cc2)c2ccc(-c3ncccc3C(F)(F)F)cc2n1` [Compound 417, [2-[(Butyl-ethyl-amino)-ethyl]-7-(3-trifluoromethyl-pyridin-2-yl)-quinazolin-4-yl]-(4-trifluoromethyl-phenyl)-amine] it is over 6.00.
The figure for `CCCN(CCc1nc(Nc2ccc(C(F)(F)F)cc2)c2ccc(-c3ncccc3C(F)(F)F)cc2n1)CC1CC1` [Compound 418, [2-[(Cyclopropylmethyl-propyl-amino)-ethyl]-7-(3-trifluoromethyl-pyridin-2-yl)-quinazolin-4-yl]-(4-trifluoromethyl-phenyl)-amine] is over 6.00.
The figure for `CCCCCCN(C)CCc1nc(Nc2ccc(C(F)(F)F)cc2)c2ccc(-c3ncccc3C(F)(F)F)cc2n1` [Compound 419, [2-[(Hexyl-methyl-amino)-ethyl]-7-(3-trifluoromethyl-pyridin-2-yl)-quinazolin-4-yl]-(4-trifluoromethyl-phenyl)-amine] is over 6.00.
